Experiments:
Salmonella = conditions: cited from earlier work
[1] = system: Salmonella typhimurium strains, TA98 and TA100; assay: Ames test (Salmonella mammalian microsome mutagenicity assay), with and without rat liver S9; format: cell-based; conditions: presence and absence of metabolic activation (rat liver S9)
From the text: (§1) The most widely accepted mutagenicity screening test procedure for amines is the Salmonella mammalian microsome mutagenicity assay developed by Ames et al. (Mutat. Res., 31 (1975) 347), hereinafter referred to as the Ames test. Subsequently, a modification of the Ames test was introduced by Prival et al. (Mutat. Res., 97 (2) (1982) 103) specifically for evaluating the mutagenicity of azo compounds, hereinafter referred to as the Prival modification. For a general discussion of mutagenicity as it pertains to colored materials, see, for instance, Freeman et al., Genotoxicity of Azo Dyes: Bases and Implications, Physico-Chemical Principles of Color Chemistry, Advances in Color Chemistry Series, Vol. 4, ed. by A. T. Peters and H. S. Freeman (Blackie Academic Press: Glasgow, 1996) 254-291; Freeman et al., Dyes Pigm. 8 (6) (1987) 431-47; and Freeman et al., CHEMTECH, July (1991), 438-445.
(§2) Mutagenicity testing of the pure derivatives of benzidine was performed using the standard Ames test, as described by Ames et al. (Mutat. Res., 31 (1975) 347). Mutagenicity testing of the various pigments was performed using the standard Ames test, and also using the Prival modification, as described by Prival et al. (Mutat. Res., 97 (2) (1982) 103).
(§3) More particularly, two Salmonella typhimurium strains, TA98 and TA100, were employed for mutagenicity testing. All benzidine derivatives and the pigments made therefrom were evaluated in the presence and absence of metabolic activation. In the Ames test, metabolic activation was achieved using rat liver S9, whereas hamster liver S9 was employed in the Prival modification. A mutagenic response was recorded for a test compound if the number of revertant colonies counted was more than twice the number of spontaneous revertant colonies formed in the absence of the test compound. A nonmutagenic response (Ames negative or Prival negative) was recorded when the number of revertant colonies counted was less than twice the number of spontaneous revertant colonies.

[2] = system: Salmonella typhimurium strains, TA98 and TA100; assay: Prival modification of the Ames test, with and without hamster liver S9; format: cell-based; conditions: presence and absence of metabolic activation (hamster liver S9)
From the text: as §1, §2, §3

[3] = in N,N-dimethylformamide (DMF); cited from earlier work

SMILES | mutagenicity in the Ames test (prior art) (Salmonella) | mutagenicity in the Ames test [1] | mutagenicity in the Prival modification [2] | λmax [3]
Nc1ccc(-c2ccc(N)c(Cl)c2)cc1Cl [3,3'-dichlorobenzidine] | mutagenic |  |  | 
COc1cc(-c2ccc(N)c(OC)c2)ccc1N [3,3'-dimethoxybenzidine] | mutagenic |  |  | 
Cc1cc(-c2ccc(N)c(C)c2)ccc1N [3,3'-dimethylbenzidine] | mutagenic |  |  | 
Cc1cc(-c2cc(C)c(N)c(C)c2)cc(C)c1N [3,5,3',5'-tetramethylbenzidine] | nonmutagenic |  |  | 
CCCOc1cc(-c2cc(OCCC)c(N=CC3C(=O)NC(=S)NC3=O)cc2C)c(C)cc1N=CC1C(=O)NC(=S)NC1=O [Pigment 93] |  | negative (the number of revertant colonies counted was less than twice the number of spontaneous revertant colonies) | negative (the number of revertant colonies counted was less than twice the number of spontaneous revertant colonies) | 
CCCOc1cc(-c2cc(OCCC)c(NN=C(C(C)=O)C(=O)Nc3ccccc3)cc2C)c(C)cc1NN=C(C(C)=O)C(=O)Nc1ccccc1 [Pigment 95] |  | negative (the number of revertant colonies counted was less than twice the number of spontaneous revertant colonies) | negative (the number of revertant colonies counted was less than twice the number of spontaneous revertant colonies) | 
CCCOc1cc(-c2cc(OCCC)c(NN=C(C(C)=O)C(=O)Nc3ccccc3OC)cc2OC)c(OC)cc1NN=C(C(C)=O)C(=O)Nc1ccccc1OC [Pigment 98] |  | negative (the number of revertant colonies counted was less than twice the number of spontaneous revertant colonies) | negative (the number of revertant colonies counted was less than twice the number of spontaneous revertant colonies) | 
CCCOc1cc(-c2cc(OCCC)c(NN=C(C(C)=O)C(=O)Nc3ccccc3OC)cc2Cl)c(Cl)cc1NN=C(C(C)=O)C(=O)Nc1ccccc1OC [Pigment 107] |  | negative (the number of revertant colonies counted was less than twice the number of spontaneous revertant colonies) | negative (the number of revertant colonies counted was less than twice the number of spontaneous revertant colonies) | 
CCCOc1cc(-c2cc(OCCC)c(NN=C3C(=O)N(c4ccccc4)N=C3C)cc2C)c(C)cc1NN=C1C(=O)N(c2ccccc2)N=C1C [Pigment 108] |  | negative (the number of revertant colonies counted was less than twice the number of spontaneous revertant colonies) | negative (the number of revertant colonies counted was less than twice the number of spontaneous revertant colonies) | 
CCCOc1cc(-c2cc(OCCC)c(NN=C(C(C)=O)C(=O)Nc3ccc4[nH]c(=O)[nH]c4c3)cc2C)c(C)cc1NN=C(C(C)=O)C(=O)Nc1ccc2[nH]c(=O)[nH]c2c1 [Pigment 113] |  | negative (the number of revertant colonies counted was less than twice the number of spontaneous revertant colonies) | negative (the number of revertant colonies counted was less than twice the number of spontaneous revertant colonies) | 
COc1cc(-c2ccc(NN=C(C(C)=O)C(=O)Nc3ccccc3)c(OC)c2)ccc1NN=C(C(C)=O)C(=O)Nc1ccccc1 [compound 1] |  |  |  | 445 nm
COc1ccccc1NN=C(C(C)=O)C(=O)Nc1ccccc1 [compound 2] |  |  |  | 392 nm
CCCOc1cc(-c2cc(OCCC)c(N)cc2C)c(C)cc1N [compound 12, 2,2'-dimethyl-5,5'-dipropoxybenzidine] |  | Ames negative (the number of revertant colonies counted was less than twice the number of spontaneous revertant colonies) |  | 
CCCOc1cc(-c2cc(OCCC)c(N)cc2OC)c(OC)cc1N [compound 26, 2,2'-dimethoxy-5,5'-dipropoxybenzidine] |  | Ames negative (the number of revertant colonies counted was less than twice the number of spontaneous revertant colonies) |  | 

Source: US5965717A, “Organic pigments from twisted benzidines” (North Carolina State University, priority 1997, dated 1999)
